{"source": "patent US20130281544A1", "about": "“HEPATOPROTECTANT ACTIVITY OF GARCINOL” (priority 2010, published 2013)", "key": {"[1]": {"system": "alcohol (Ethyl alcohol) induced hepatotoxic animal models", "experiment": "Serum ALT, AST, ALP and bilirubin in alcohol (ethyl alcohol) induced hepatotoxic animal models", "assay_type": "in vivo, Male Wistar Rats", "details": "EtOH; for ALP percent change / ALT percent change / AST percent change / Bilirubin percent change / ALP / ALT / AST / Bilirubin: serum; for ALP / ALT / AST / Bilirubin: Mean ± SE", "experimental": "Doses of Garcinol (GC) used for the study: 1.25, 2.5, 5, 10 mg/kg p.o.\nStandard drug: Silymarin (50 mg/kg) p.o.\nMale Wistar rats, weighing 180-200 g, were given 0.5-0.6 ml ethanol orally. […] All rats had regular standard rat chow available throughout the 6-week period. Rats were weighted three times per week. [Guangjin Yuan, Zuojiong Gong *, Xiaorong Zhou, Pin Zhang, Xiaomei Sun and Xi Li. Epigallocatechin-3-Gallate Ameliorates Alcohol-Induced Liver Injury in Rats. Int. J. Mol. Sci. 2006, 7, 204-219]. Blood was collected from the retro-orbital plexus of experimental animals and no anti-coagulant was added. Blood was made to stand at room temperature for 1 hour. It was then centrifuged and clear serum was separated. The serum was then stored for analysis. Reference: (Magari et al., 2004).\n(ASPARTATE AMINOTRANSFERASE and ALANINA AMINOTRANSFERASE), Reference: Ritman S, Frankel S, (1957). A colorimetric method for the determination of serum glutamic oxaloacetic and glutamic pyruvic transaminases. American Journal of Clinical Pathology; 28: 56-63.\n0.2 ml of serum, collected from test and control samples, was mixed with 1.0 ml of buffer solution and incubated for 60 min at 37° C. in a water bath. After the addition of 1.0 ml of chromogen solution, the samples were kept at room temperature for 20 minutes for the reaction to proceed and 10 ml NaOH was added. The optical density was red at 546 nm after 5 min. To the blank, serum was added after the addition of chromogen solution.\n(ALKALINE PHOSPHATASE), Reference: Klaus Walter and Schutt C. (1974). Acid and alkaline phosphatase in serum. In: Methods of Enzymatic Analysis. Eds. Hans Ulrich Bergmeyer, Verlag ChemieWeinheim, Academic press, Inc. New York, 2nd Edition, Vol. 2, pp. 855-64.\nAlkaline phosphatase activity measurement is based on the ability of the enzyme to hydrolyze p-nitrophenol phosphate under alkaline conditions. The cleaved product p-nitrophenol is yellow in alkaline solution and is measured at 400-420 nm (Klaus and Schutt, 1974). 2.0 ml of buffered substrate was taken in the tubes ‘Test’ ‘Control’ and ‘Blank’ followed by addition of serum and distilled water (0.1 ml) in ‘Test’ and ‘Blank’ respectively and incubated in a water bath for 30 minutes at 25° C. After incubation sodium hydroxide was added (0.25 N, 2 ml) to all the tubes, which was followed by serum (0.1 ml) to the tubes marked ‘Control’. The yellow colour formed was measured spectrophotometrically against blank at 410 nm.\n[BILIRUBIN (BRBN)], Reference: Malloy H T and Evelyn K A (1937). The determination of bilirubin with photoelectric colorimeter. Journal of Biological Chemistry 119: 481-490.\nSerum bilirubin was estimated by the method of Malloy and Evelyn (1937). In the two sets of test tubes marked ‘Test’ and ‘Control’, serum (0.2 ml) and distilled water (1.8 ml) were added. To the tubes marked ‘Test’ and ‘Standard’ diazo reagent (0.5 ml) was added. To the test tubes marked ‘Control’ and ‘Blank’ diazo blank (0.5 ml) was added. Finally methanol (2.5 ml) was added into each test tube. The tubes were mixed and allowed to stand for 30 minutes in dark. The tubes were read after 10 minutes at 540 nm."}, "[2]": {"system": "Hep G2 liver cancer cell line", "experiment": "in vitro", "assay_type": "cell-based"}, "in vitro": {"experiment": "in vitro", "assay_type": "cell-based", "details": "human"}}, "note": "Marks after values point to notes of the source that are not given here.", "data": [{"compound": "C=C(C)[C@@H](CC=C(C)C)C[C@@]12C[C@@H](CC=C(C)C)C(C)(C)[C@@](CC=C(C)C)(C(=O)C(C(=O)c3ccc(O)c(O)c3)=C1O)C2=O", "note": "[Garcinol]", "values": [{"measurement": "Average Protection", "setting": "[1]; 1.25 mg/kg p.o.", "result": 17.32, "unit": "%"}, {"measurement": "Average Protection", "setting": "[1]; 2.50 mg/kg p.o.", "result": 29.82, "unit": "%"}, {"measurement": "Average Protection", "setting": "[1]; 5.00 mg/kg p.o.", "result": 39.39, "unit": "%"}, {"measurement": "Average Protection", "setting": "[1]; 10.00 mg/kg p.o.", "result": 40.20, "unit": "%"}, {"measurement": "ALP percent change", "setting": "[1]; 1.25 mg/kg p.o.", "result": "(14.91) %"}, {"measurement": "ALT percent change", "setting": "[1]; 1.25 mg/kg p.o.", "result": "(27.45) %"}, {"measurement": "AST percent change", "setting": "[1]; 1.25 mg/kg p.o.", "result": "(20.20) %"}, {"measurement": "Bilirubin percent change", "setting": "[1]; 1.25 mg/kg p.o.", "result": "(6.73) %"}, {"measurement": "ALP", "setting": "[1]; 1.25 mg/kg p.o.", "result": "88.68 ± 8.58", "unit": "μmol min/lt"}, {"measurement": "ALT", "setting": "[1]; 1.25 mg/kg p.o.", "result": "1320.40 ± 52.20* μmol min/lt"}, {"measurement": "AST", "setting": "[1]; 1.25 mg/kg p.o.", "result": "858.80 ± 32.64", "unit": "μmol min/lt"}, {"measurement": "Bilirubin", "setting": "[1]; 1.25 mg/kg p.o.", "result": "1.94 ± 0.02", "unit": "mg %"}, {"measurement": "ALP percent change", "setting": "[1]; 2.50 mg/kg p.o.", "result": "(26.96) %"}, {"measurement": "ALT percent change", "setting": "[1]; 2.50 mg/kg p.o.", "result": "(40.63) %"}, {"measurement": "AST percent change", "setting": "[1]; 2.50 mg/kg p.o.", "result": "(32.47) %"}, {"measurement": "Bilirubin percent change", "setting": "[1]; 2.50 mg/kg p.o.", "result": "(19.23) %"}, {"measurement": "ALP", "setting": "[1]; 2.50 mg/kg p.o.", "result": "76.12 ± 4.88* μmol min/lt"}, {"measurement": "ALT", "setting": "[1]; 2.50 mg/kg p.o.", "result": "1080.50 ± 48.56** μmol min/lt"}, {"measurement": "AST", "setting": "[1]; 2.50 mg/kg p.o.", "result": "726.78 ± 46.50* μmol min/lt"}, {"measurement": "Bilirubin", "setting": "[1]; 2.50 mg/kg p.o.", "result": "1.68 ± 0.04* mg %"}, {"measurement": "ALP percent change", "setting": "[1]; 5.00 mg/kg p.o.", "result": "(34.44) %"}, {"measurement": "ALT percent change", "setting": "[1]; 5.00 mg/kg p.o.", "result": "(51.83) %"}, {"measurement": "AST percent change", "setting": "[1]; 5.00 mg/kg p.o.", "result": "(39.58) %"}, {"measurement": "Bilirubin percent change", "setting": "[1]; 5.00 mg/kg p.o.", "result": "(31.73) %"}, {"measurement": "ALP", "setting": "[1]; 5.00 mg/kg p.o.", "result": "68.32 ± 5.60** μmol min/lt"}, {"measurement": "ALT", "setting": "[1]; 5.00 mg/kg p.o.", "result": "876.58 ± 76.80** μmol min/lt"}, {"measurement": "AST", "setting": "[1]; 5.00 mg/kg p.o.", "result": "650.26 ± 56.20** μmol min/lt"}, {"measurement": "Bilirubin", "setting": "[1]; 5.00 mg/kg p.o.", "result": "1.42 ± 0.06** mg %"}, {"measurement": "ALP percent change", "setting": "[1]; 10.00 mg/kg p.o.", "result": "(33.79) %"}, {"measurement": "ALT percent change", "setting": "[1]; 10.00 mg/kg p.o.", "result": "(52.15) %"}, {"measurement": "AST percent change", "setting": "[1]; 10.00 mg/kg p.o.", "result": "(41.23) %"}, {"measurement": "Bilirubin percent change", "setting": "[1]; 10.00 mg/kg p.o.", "result": "(33.65) %"}, {"measurement": "ALP", "setting": "[1]; 10.00 mg/kg p.o.", "result": "69.00 ± 4.82** μmol min/lt"}, {"measurement": "ALT", "setting": "[1]; 10.00 mg/kg p.o.", "result": "870.80 ± 48.40** μmol min/lt"}, {"measurement": "AST", "setting": "[1]; 10.00 mg/kg p.o.", "result": "632.48 ± 44.56** μmol min/lt"}, {"measurement": "Bilirubin", "setting": "[1]; 10.00 mg/kg p.o.", "result": "1.39 ± 0.04** mg %"}, {"measurement": "effective concentration for mammalian hepatocyte protection", "setting": "[2]", "result": "0.78 to 6.25", "unit": "µg/mL"}, {"measurement": "IC50", "setting": "[2]; Homo sapiens, HepG2, HEP G2 cells, MTT, read-out: Hepatoprotective activity in HEP G2 cells IC50", "result": 13.3, "unit": "µg/mL"}, {"measurement": "cytotoxicity at 0.78 μg/ml", "setting": "in vitro", "result": -3.81, "unit": "%"}, {"measurement": "cytotoxicity at 1.56 μg/ml", "setting": "in vitro", "result": -12.1, "unit": "%"}, {"measurement": "cytotoxicity at 3.13 μg/ml", "setting": "in vitro", "result": -14.7, "unit": "%"}, {"measurement": "cytotoxicity at 6.25 μg/ml", "setting": "in vitro", "result": -1.94, "unit": "%"}, {"measurement": "cytotoxicity at 12.5 μg/ml", "setting": "in vitro", "result": 35.8, "unit": "%"}, {"measurement": "cytotoxicity at 25 μg/ml", "setting": "in vitro", "result": 60.9, "unit": "%"}, {"measurement": "cytotoxicity at 50 μg/ml", "setting": "in vitro", "result": 83.2, "unit": "%"}, {"measurement": "cytotoxicity at 100 μg/ml", "setting": "in vitro", "result": 83.4, "unit": "%"}, {"measurement": "cytotoxicity at 200 μg/ml", "setting": "in vitro", "result": 79.5, "unit": "%"}]}]}
